Reference: patent publication US20090163481A1, “PPAR-DELTA LIGANDS AND METHODS OF THEIR USE” (priority 2007, published 2009)
Where two headings read alike, the source gives them in different places.

How the values were obtained:
[1] = Proliferation assay of Table 2 (cell line not stated); type: cell-based; settings: concentration that inhibits cell viability (or growth) by 50% relative to vehicle control; read-out: Prolif IC50
Method: (§1) The LANTHA SCREEN™ TR-FRET PPARδ Competitive Binding Assay was conducted for a variety of compounds according to the instructions provided by the manufacturer (Invitrogen). In addition, proliferation assays were conducted. In Table 2, “Prolif IC50” is the concentration that inhibits cell viability (or growth) by 50% relative to a vehicle control, and “TR-F binding IC50 (μM)” is the concentration that competes binding by a labeled pan-agonist to the ligand binding domain of PPAR delta, by 50%.

[2] = target: T1, ligand binding domain of PPAR delta (Homo sapiens, UniProt Q03181); test: LANTHA SCREEN TR-FRET PPARδ Competitive Binding Assay
T1 construct: purchased Invitrogen
T1 sequence (Q03181 211-439 limits assumed): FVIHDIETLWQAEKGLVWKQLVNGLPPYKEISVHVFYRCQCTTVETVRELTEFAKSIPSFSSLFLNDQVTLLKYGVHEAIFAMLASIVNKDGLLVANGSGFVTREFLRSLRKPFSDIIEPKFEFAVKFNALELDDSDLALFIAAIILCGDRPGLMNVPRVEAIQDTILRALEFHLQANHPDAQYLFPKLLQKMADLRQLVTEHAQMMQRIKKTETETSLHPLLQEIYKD
Method: as §1

[3] = test system: A549 cells; test: Apoptosis, Cell Death Detection ELISA (DNA fragmentation) in A549 cells; type: cell-based, human; settings: A549, GW501 1 μM with SR13904 15 μM
Method: Referring now to FIG. 6, SR13904 treatment of cancer cells results in increased apoptosis. A549 cells (2×10^4 cells/well) were incubated in 0.5% media (96 well plates) SR13904 for 40 h. The relative degrees of apoptosis were determined using a Cell Death Detection ELISA (Roche). SR represents SR13904. ***p=<0.001 SR vs. SR+GW501.
SR13904 treatment results in increased apoptosis. Down-regulation of PPARδ, either by genetic knockout or by the treatment with 13-S—HODE (15-lipoxygenase-1 product), induces apoptosis in colorectal cancer cells. The effects of SR13904 (15 μM) GW501 (1 μM) on survival of A549 cells (0.5% serum) was determined. Relative degrees of apoptosis were measured using a DNA fragmentation assay.

[4] = target: T2, PPARδ (Homo sapiens, UniProt Q03181); test: PPRE promoter/luciferase reporter (transactivation) assay in U2-OS cells; type: cell-based
T2 construct: expressed in transfected cells; host or cells: U2-OS (human bone cancer line)
T2 sequence (Q03181 1-441): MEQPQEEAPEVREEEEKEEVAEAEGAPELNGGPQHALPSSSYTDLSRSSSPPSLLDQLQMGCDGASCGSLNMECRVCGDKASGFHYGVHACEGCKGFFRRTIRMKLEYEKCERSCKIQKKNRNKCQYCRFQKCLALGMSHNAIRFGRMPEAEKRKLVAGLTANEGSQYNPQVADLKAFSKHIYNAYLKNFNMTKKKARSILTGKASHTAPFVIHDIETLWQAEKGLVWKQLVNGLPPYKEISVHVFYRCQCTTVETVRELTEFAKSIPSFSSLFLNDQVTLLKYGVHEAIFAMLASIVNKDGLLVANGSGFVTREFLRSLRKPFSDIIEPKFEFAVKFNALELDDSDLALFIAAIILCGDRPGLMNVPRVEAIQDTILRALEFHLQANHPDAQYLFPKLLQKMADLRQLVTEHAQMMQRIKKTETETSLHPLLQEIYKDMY
Method: (§2) General Testing Procedures. Each ligand was screened for PPARδ binding and transactivation activity through the use of two complementary reporter assays as described below. In both systems, transfection efficiency was standardized by co-transfection of a control Renilla luciferase. U2-OS (human bone cancer line) cells were used for both assays because this is the cell line of choice for screening PPAR ligands. At 18 h post-transfection, GW 501, with and without the ligands of the disclosure, was added to the cells and incubated for an additional 24 h. The cells were then harvested and luciferase activities profiled.
A promoter/luciferase reporter assay. This assay involves co-transfection of a PPARδ expression vector and a plasmid containing a luciferase gene under the control of PPARδ responsive DNA element (three copies of a consensus PPAR response element, PPRE). This assay was used to directly test ligand effects on PPARδ-responsive genes.
(§3) Referring to FIG. 3, U2-OS cells were transiently transfected with appropriate expression and reporter vectors. Ligands were added to the cell cultures 24 h post-transfection and incubated for an additional 16 h. Lipoprotein lipase (LPL; 2 μg/ml) was added with VLDL (5 μg/ml) to release PPARδ-active triglycerides. FIG. 3A: PPARδ LBD/Gal4/UAS-tk-luc competition assays with VLDL SR13904 (0-10 μM). The reporter activation (fold increase over blank) is presented relative to GW501516 at 7 nM (fold increase over blank=100). FIG. 3B: PPRE reporter assays using 0, 1, and 10 μM SR13904+VLDL. All assays were repeated in triplicate.

[5] = Solubility in DMSO (noted in binding assay column); type: physicochemical
[6] = target: T3, LBD of PPARδ protein (Homo sapiens, UniProt Q03181); test: PPARδ ligand-binding domain (LBD)/Gal4 UAS-tk-luciferase reporter assay in U2-OS cells; type: cell-based; settings: from GAL-4 binding and PPRE transactivation reporter screens
T3 construct: co-transfection of a plasmid containing an LBD/Gal4 fusion construct; expressed in transfected cells; host or cells: U2-OS (human bone cancer line)
T3 sequence (Q03181 211-439 limits assumed): T1 sequence (Q03181 211-439 limits assumed)
Method: as §2
A PPARδ protein ligand-binding domain (LBD) assay. The LBD assay consists of cellular co-transfection of a plasmid containing an LBD/Gal4 fusion construct and a vector containing a UAS-tk-luciferase reporter construct under the transcriptional control of a Gal4 upstream activating sequence. This system was used to test for binding activities of candidate PPARδ ligands to the LBD of PPARδ protein.
as §3

[7] = competes binding by a labeled pan-agonist by 50%, * = determined by approximation from a semi log graph, read-out: TR-F binding IC50

IC50 [2, 7] [µM]	SMILES	IC50 [1] [µM]	other results
> 14	Cc1cc(SCC(=O)N(Cc2ccc(Cl)cc2Cl)C(c2ccccc2)c2ccccc2)ccc1OCC(=O)O [SRI-010258]	4.8	–
> 25	Cc1cc(SCCC(=O)N(Cc2ccc(Cl)cc2Cl)C(c2ccccc2)c2ccccc2)ccc1OCC(=O)O [SRI-010264]	5.9	–
3.8	Cc1cc(SCCN2c3ccccc3Sc3ccc(C(F)(F)F)cc32)ccc1OCC(=O)O [SRI-010250]	7	–
> 30	Cc1cc(SCCn2c3ccccc3c3ccccc32)ccc1OCC(=O)O [SRI-010252]	9	–
> 25	Cc1cc(SCCC(=O)N(Cc2ccc(F)c(F)c2)C(c2ccccc2)c2ccccc2)ccc1OCC(=O)O [SRI-010263]	9.1	–
> 30	Cc1cc(SCCC(=O)NC(c2ccccc2)c2ccccc2)ccc1OCC(=O)O [SRI-010266]	> 40	–
> 30	COc1ccc(CN(C(=O)CCSc2ccc(OCC(=O)O)c(C)c2)C(c2ccccc2)c2ccccc2)cc1OC [SRI-010265]	> 40	–
–	Cc1cc(SCc2sc(-c3ccc(C(F)(F)F)cc3)nc2C)ccc1OCC(=O)O [GW 501516, reference compound]	–	effect of co-treatment on SR13904-induced apoptosis [3]: markedly alleviated
> 23	Cc1cc(SCC(=O)N(Cc2ccc(F)c(F)c2)C(c2ccccc2)c2ccccc2)ccc1OCC(=O)O [SRI-010257]	9.1	–
–	CCCc1cc(SCc2sc(-c3cccc4ccccc34)nc2C)ccc1OCC(=O)O [SR 13905]	–	inhibition of PPARδ-mediated transactivation [4]: appear to inhibit
> 12	Cc1cc(SCC(=O)N(Cc2ccccc2)C(c2ccccc2)c2ccccc2)ccc1OCC(=O)O [SRI-010255]	5	–
> 18	Cc1cc(SCCC(=O)N(Cc2ccc(Cl)cc2)C(c2ccccc2)c2ccccc2)ccc1OCC(=O)O [SRI-010262]	5.6	–
> 18	Cc1cc(SCC(=O)N(Cc2ccc(Cl)cc2)C(c2ccccc2)c2ccccc2)ccc1OCC(=O)O [SRI-010256]	–	–
–	Cc1cc(SCC(=O)NC(c2ccccc2)c2ccccc2)ccc1OCC(=O)O [SRI-010260]	> 40	solubility in DMSO [5]: not soluble in DMSO
0.85	Cc1cc(SCCOC(c2ccc(F)cc2)c2ccc(F)cc2)ccc1OCC(=O)O [SRI-010249]	5.4	IC50 ([2]; repeat determination of TR-F binding IC50, read-out: repeat TR-F): 1.2 µM
–	CCCc1cc(SCc2sc(-c3ccc(CC)cc3)nc2C)ccc1OCC(N)=O [SR 13910]	–	PPARδ ligand profile (agonist/antagonist) [6]: low-affinity agonists
> 30	Cc1cc(SCCOC2c3ccccc3-c3ccccc32)ccc1OCC(=O)O [SRI-010248]	9	–
1.3	Cc1cc(SCCOC(c2ccccc2)c2ccc(C(F)(F)F)cc2)ccc1OCC(=O)O (stereo not shown) [SRI-010254]	7.4	–
–	Cc1cc(SCc2sc(-c3ccc4ccccc4c3)nc2C)ccc1OCC(=O)O [SR 13961]	–	PPARδ ligand profile (agonist/antagonist) [6]: low-affinity agonists
–	CCCc1cc(SCc2sc(-c3ccc(C(C)(C)C)cc3)nc2C)ccc1OCC(=O)O [SR 13907]	–	PPARδ ligand profile (agonist/antagonist) [6]: low-affinity agonists; inhibition of PPARδ-mediated transactivation [4]: appear to inhibit
3	Cc1cc(SCCOC(c2ccccc2)c2ccccc2)ccc1OCC(=O)O [SRI-010253]	14	–
> 30	COc1ccc(CN(C(=O)CSc2ccc(OCC(=O)O)c(C)c2)C(c2ccccc2)c2ccccc2)cc1OC [SRI-010259]	> 40	–
> 20	Cc1cc(SCCC(=O)N(Cc2ccccc2)C(c2ccccc2)c2ccccc2)ccc1OCC(=O)O [SRI-010261]	8.5	–
–	Cc1cc(SCc2sc(-c3ccc(C(C)(C)C)cc3)nc2C)ccc1OCC(=O)O [SR 13906]	–	PPARδ ligand profile (agonist/antagonist) [6]: low-affinity agonists; inhibition of PPARδ-mediated transactivation [4]: appear to inhibit
13.7	Cc1cc(SCCN2c3ccccc3Sc3ccccc32)ccc1OCC(=O)O [SRI-010251]	7.6	–
